In patent EP1588705A1, “Use of coumarin derivatives” (INTE:LIGAND Software-Entwicklungs und Consulting GmbH, priority 2004, dated 2005):
Where a name gives a salt, the structure may show the parent alone.

What was measured:
[1] = tested on: extracellular concentration of ACh in the nucleus accumbens; assay: in vivo extracellular ACh concentration, push-pull technique, i.c.v. injection; parameters: species or system Sprague-Dawley rats; conditions: 2 µmol i.c.v.; for extracellular concentration of ACh (relative value, means ± SEM): mean before drug = 1.0
Text: Surgery and push-pull technique: Sprague-Dawley rats (250-350 g) were anaesthetized with urethane 1,2 g/kg, i.p. The head was fixed in a stereotaxic frame and a push-pull cannula (outer tubing: o.d. 0.75 mm, i.d. 0.41 mm; inner tubing: o.d. 0.26 mm, i.d. 0.13 mm) was mounted on a microdrive. This was stereotaxically inserted through a hole in the skull into the nucleus accumbens (coordinates, mm from bregma: AP, +1.2; L, +2.5; V, -7.8; Paxinos & Watson, 1998). A second hole was drilled into the skull for the i.c.v. application of drugs (coordinates, mm from bregma: AP, -2,8; L, +1,5) The nucleus accumbens was superfused at 20µL/min with artificial cerebrospinal fluid (aCSF), pH 7.2. The CSF consisted of: NaCl,140; KCI, 3; CaCl2, 1.2; MgCl2 1; Na2HPO4, 1; NaH2PO4, 0.3; glucose 3.0 (mmol I^-1), neostigmine 1.0 (µmol/l^-1). After 1 h of the cannula insertion the samples were collected into tubes kept at -20° C in time periods of 10 min and then stored at -80° C until acetylcholine (Ach) was determined.
Using a motorized microsyringe connected to a stereotaxic microdrive, the tip was introduced with an angle of 60° through the drug application-hole into the ipsilateral ventricle (coordinates mm from bregma: AP, -0,9; L, +1,5; V, -3,8) via a cannula (o.d., 0,65; i.d., 0,38). The drug solutions were injected at 2µL/min. The control rats were injected with the vehicle (DMSO: EtOH 1:1).
Histology: At the end of the experiment the rat was killed with an overdose of urethane, the brain was removed and stored in buffered formaldehyde solution (7%). Serial coronal sections were cut at 50 µm intervals. Localisation of the push-pull cannula and i.c.v. microinjection was verified. Experiments with unsatisfactory localisation were discarded.
Determination of acetylcholine: (Ach): ACh content in the samples was determined by HPLC with a cation-exchanging analytical column and a post-column reactor followed by electrochemical detection (Damsma et al, 1997; Prast et al; 1998). The system consisted of a HPLC-pump (JASCO PU-1580, Jasco Corporation, Tokyo, Japan), a pulse dampener and an autosampler (AS-4000, Hitachi Ltd., Tokyo, Japan) with a 100-µL sample loop. […] The peroxide was electrochemically detected by a UniJet platin electrode (3mm) at +500 mV with an amperometric detector (BAS LC-4, Bioanalytical Systems, West Lafayette, IN, USA). […] ACh was quantified with external standards that were injected at the beginning and the end of the analysis.
Statistical significance of drug effects on the extracellular ACh concentration was calculated by Friedman's analysis of variance, followed by Wilcoxon's signed rank test for paired data (a p<0.08, * p<0.05, ** p<0,001) using the mean concentration rate before the administration of drugs as controls. […]

[2] = target: T1, acetylcholinesterase (Electrophorus electricus, UniProt O42275); assay: biochemical
T1 sequence (O42275 24-633): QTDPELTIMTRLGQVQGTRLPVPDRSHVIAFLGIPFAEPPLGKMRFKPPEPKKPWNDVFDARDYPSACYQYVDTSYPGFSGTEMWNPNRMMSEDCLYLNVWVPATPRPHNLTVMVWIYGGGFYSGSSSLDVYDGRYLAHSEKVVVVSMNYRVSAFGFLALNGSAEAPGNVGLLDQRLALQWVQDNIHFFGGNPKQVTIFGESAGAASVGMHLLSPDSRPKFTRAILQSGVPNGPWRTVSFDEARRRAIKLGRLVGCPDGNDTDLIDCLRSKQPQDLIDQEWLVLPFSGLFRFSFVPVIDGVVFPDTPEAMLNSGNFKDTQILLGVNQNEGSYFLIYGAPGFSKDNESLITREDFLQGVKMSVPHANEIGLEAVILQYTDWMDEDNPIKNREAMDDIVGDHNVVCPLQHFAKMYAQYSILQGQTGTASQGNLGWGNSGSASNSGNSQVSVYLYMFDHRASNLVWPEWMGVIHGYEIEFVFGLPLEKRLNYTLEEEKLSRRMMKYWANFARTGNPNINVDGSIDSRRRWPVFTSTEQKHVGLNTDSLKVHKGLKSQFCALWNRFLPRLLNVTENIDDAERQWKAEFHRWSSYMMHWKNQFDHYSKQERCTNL
Text: (§1) In both test systems, the enzyme (acetylcholinesterase, Sigma-Aldrich Chemie GmbH, Steinheim, Germany) hydrolyzes the substrate acetylthiocholine (acetylthiocholiniodid, Sigma-Aldrich Chemie GmbH, Steinheim, Germany) to produce thiocholine. This reacts with Ellman's reagent (5,5'-dithiobis-(2-nitrobenzoic acid), Sigma-Aldrich Chemie GmbH, Steinheim, Germany) resulting in 5-thio-2-nitrobenzoate and the yellow colored 2-nitrobenzoate-5-mercaptothiocholine. This latter was visually detected in the TLC test.
The self absorbance of all ingredients of the assay was corrected by subtracting the absorbance at time zero from the subsequent absorbance values. […] For all three substances the concentration dependence of their AChE inhibitory activity was determined. Percentage of the enzyme inhibition was calculated by comparing the rates for the sample to the blank (containing 1% DMSO) and analyzed with Student's t-test.

[3] = target: T1, acetylcholinesterase; assay: bioautographic TLC test for AChE inhibitory activity (Ellman's method); type: biochemical; parameters: purchased Sigma-Aldrich Chemie GmbH, Steinheim, Germany; conditions: spots of methanolic extract of S. carniolica rhizomes, Rf 0.6 (SCT) and 0.4 (SCN); false positives excluded
Experimental: The AChE inhibitory activity of the methanolic crude extract was qualitatively determined in a TLC assay using Ellman's method (Ellman, et al, 1961). Additionally a test to exclude false positive results was conducted described by Rhee et al, 2003. The used silica gel TLC plates 60F254 (0.2 mm thickness) were purchased from Merck (Darmstadt, Germany). […] Enzyme inhibitory activities were detected by spraying the substrate, dye and enzyme described by Rhee and coauthors (Rhee et al, 2001).
as §1

[4] = tested on: mice; assay: T-maze continuous alternation; type: in vivo
Experimental: (§2) […] female, 3-month mice, weighing 20 - 27 g, were used in the present study. The animals were housed in groups of six to ten in cages (40 (L) x 25 (W) x 15 (H) cm) placed in a room at a constant temperature (22±1 °C), 12-light/ 12-dark cycle (07:00-19:00 h), with food and water ad libitum. Experiments were conducted between 09:00 and 16:00h.
(§3) Mice were anaesthetized with Pentobarbital sodium (60 mg/kg, i.p.) and placed in a stereotaxic frame. A guide cannula (gauge 25, o.d. 0.52 mm, i.d, 0.26 mm and 7 mm long) was stereotaxically implanted through a hole on the skull into the brain area 0.5 mm higher than the third cerebral ventricle (-0.1 mm posterior, 0.8 mm lateral to bregma, -2.2 mm ventral to the dura) (Franklin and Paxinos, 1997). Guide cannula was secured to the skull using two small screws and dental cement. The microinjector (Hamilton gauge 32, o.d. 0.24 mm and i.d. 0.11 mm, 7.5 mm long) protruded 0.5 mm from the tip of the guide cannula to reach the cerebral ventricle. Mice recovered for 5 days before any experimentation was done.
Scopolamine hydrobromide (Sigma, St. Louis, MO, U.S.A.) was dissolved in saline. SCT (Sigma-Aldrich Chemie GmbH, Steinheim, Germany) was dissolved in vehicle solution (DMSO:sterile water, 3:7). The animals were randomly divided into experimental groups and administered a cerebral ventricle injection of saline, scopolamine, SCT or scopolamine and SCT in a volume of 1 or 2 µl during 1 min. The injector was left in place an extra 1 min for drug diffusion after injection. These substances and vehicle were injected 15 min prior to the test.
Animals were randomly divided into […] experimental groups (6 mice per group) as follows: vehicle, scopolamine hybrobromide 20 µg (50 nmol) in 1µl ICV, SCT 2 µg (10 nmol) in 2µl ICV and scopolamine hybrobromide 20 µg plus SCT 2 µg ICV. All substances were injected 15 min before the test (T-maze and open field) or before the training trial T1 (object recognition test) through the 7.5 mm long injector connected with i.d. 0.28 mm polyethylene tubing to 5 µl Hamilton syringe. […]

[5] = tested on: mice; assay: open field locomotor behaviour; type: in vivo; conditions: 2 µg ICV, 30 min
Experimental: as §2
as §3, with “done. […]” for “done.”
The open field consisted of a transparent plastic box with white floor (41 x 41 x 41 cm) equipped with an automated activity monitoring system (True Scan, Coulbourn Instruments, Allentown, USA). […] The time spent in box and the overall distance travelled by the mice were monitored for 30 min. […]

[6] = tested on: mice; assay: object recognition task; type: in vivo
Experimental: as §2, §3
Scopolamine hydrobromide (Sigma, St. Louis, MO, U.S.A.) was dissolved in saline. […]
Exploration was defined as follows: directing the nose toward the object at a distance of less than 0.5 cm and/or touching the object with the nose. […] The times spent by mice in exploring each object during T1 and T2 were recorded manually by using a stopwatch. […]

Compound	ACh concentration after decline, of basal value ([1]; following the initial peak)	initial peak concentration of ACh, of basal value ([1]; rat nucleus accumbens)	extracellular concentration of ACh (relative value, means ± SEM) ([1]; rat nucleus accumbens)	inhibition of AChE, statistical significance ([2]; 1000, 500 and 250 µM)	inhibition at 1000 µM ([2]; read-out: AChE inhibitory activity) [%]	time until inhibitory activities reach their maximum extent ([2]; three highest concentrations) [min]	change of inhibitory activity towards endpoint of measurement at 90 min ([2]; three highest concentrations, after maximum in first 15 min)	AChE inhibitory activity of fluorescent TLC spot [3]	alternation rate ([4]; 2 µg ICV alone) [%]	effect on scopolamine-induced decrease in alternation rate ([4]; SCT 2 µg ICV plus scopolamine 20 µg ICV)	move distance, reduction compared to vehicle-treated controls [5]	move time in the open field ([5]; vs vehicle-treated controls)	change of inhibitory activity up to 90 min ([2]; higher concentrations (250, 500, 1000 µM))	duration of inhibitory activity ([2]; lower concentrations (62.5, 125 µM))	time until level of inhibitory activity is reached ([2]; lower concentrations (62.5, 125 µM), after adding enzyme to substrate) [min]	discrimination index, effect on scopolamine-induced impairment of object recognition ([6]; SCT 2 µg ICV plus scopolamine 20 µg ICV, 15 min before T1, mice)	effect on alternation rate ([4]; 20 µg ICV)	effect on learning in object recognition (discrimination novel vs familiar object in T2) ([6]; 20 µg ICV, mice)
COc1cc2ccc(=O)oc2cc1O[C@@H]1O[C@H](CO)[C@@H](O)[C@H](O)[C@H]1O [SCN, scopolin]	about 200%	about 400%	3.18 ± 0.78	significant	30.1	≤ 15	slight decrease	positive										
COc1cc2ccc(=O)oc2cc1O [SCT, scopoletin]			1,74 ± 0,24					positive	63 ± 5	abolished	about 20%	only slightly decreased	slight, almost insignificant increase	at least 90 min	≤ 15	significantly increased		
CN1[C@@H]2C[C@@H](OC(=O)[C@H](CO)c3ccccc3)C[C@H]1[C@@H]1O[C@@H]12 [Scopolamine, Scopolamine hydrobromide, reference compound]																	pronounced decrease	drastic impairment of learning
